Results taken from ChEMBL document CHEMBL3580659, “One-pot multicomponent synthesis of indole incorporated thiazolylcoumarins and their antibacterial, anticancer and DNA cleavage studies” (2015).

How the values were obtained:
Type in all cases: functional
HL-60(TB) = test: Cytotoxicity against human HL-60(TB) cells assessed as cell growth level at 100 uM after 48 hrs by sulforhodamine B assay
HCT-116 = test: Cytotoxicity against human HCT116 cells assessed as cell growth level at 10 uM after 48 hrs by sulforhodamine B assay
CAKI-1 = test: Cytotoxicity against human CAKI-1 cells assessed as cell growth level at 1 uM after 48 hrs by sulforhodamine B assay
SN12C [1] = test: Cytotoxicity against human SN12C cells after 48 hrs by sulforhodamine B assay
T47D = test: Cytotoxicity against human T47D cells after 48 hrs by sulforhodamine B assay
PC-3 = test: Cytotoxicity against human PC3 cells assessed as cell growth level at 100 uM after 48 hrs by sulforhodamine B assay
[2] = Cytotoxicity against human NCI-ADR-RES cells after 48 hrs by sulforhodamine B assay
HCT-15 = test: Cytotoxicity against human HCT15 cells assessed as cell growth level at 100 nM after 48 hrs by sulforhodamine B assay
OVCAR-4 = test: Cytotoxicity against human OVCAR4 cells assessed as cell growth level at 100 nM after 48 hrs by sulforhodamine B assay
OVCAR-5 = test: Cytotoxicity against human OVCAR5 cells assessed as cell growth level at 10 nM after 48 hrs by sulforhodamine B assay
NCI-H460 [3] = test: Cytotoxicity against human NCI-H460 cells assessed as cell growth level at 100 uM after 48 hrs by sulforhodamine B assay
Escherichia coli = test: Antibacterial activity against Escherichia coli assessed as bacterial growth inhibition at 50 ug/ml after 24 hrs by cup-plate agar diffusion method; details: read-out: IZ
RPMI-8226 = test: Cytotoxicity against human RPMI8226 cells assessed as cell growth level at 100 nM after 48 hrs by sulforhodamine B assay
HOP-62 = test: Cytotoxicity against human HOP62 cells assessed as cell growth level at 1 uM after 48 hrs by sulforhodamine B assay
BT-549 = test: Cytotoxicity against human BT549 cells assessed as cell growth level at 100 nM after 48 hrs by sulforhodamine B assay
SN12C [4] = test: Cytotoxicity against human SN12C cells assessed as cell growth level at 10 uM after 48 hrs by sulforhodamine B assay
HOP-92 = test: Cytotoxicity against human HOP92 cells assessed as cell growth level at 100 uM after 48 hrs by sulforhodamine B assay
SF-539 = test: Cytotoxicity against human SF539 cells assessed as cell growth level at 10 nM after 48 hrs by sulforhodamine B assay
COLO 205 = test: Cytotoxicity against human COLO205 cells assessed as cell growth level at 100 nM after 48 hrs by sulforhodamine B assay
SK-OV-3 = test: Cytotoxicity against human SKOV3 cells assessed as cell growth level at 10 nM after 48 hrs by sulforhodamine B assay
NCI-H522 [5] = test: Cytotoxicity against human NCI-H522 cells assessed as cell growth level at 10 uM after 48 hrs by sulforhodamine B assay
HCC 2998 = test: Cytotoxicity against human HCC2998 cells after 48 hrs by sulforhodamine B assay; details: HCC 2998, 48 h
NCI-H460 [6] = test: Cytotoxicity against human NCI-H460 cells assessed as cell growth level at 10 nM after 48 hrs by sulforhodamine B assay
NCI-H226 [7] = test: Cytotoxicity against human NCI-H226 cells assessed as cell growth level at 10 uM after 48 hrs by sulforhodamine B assay
U-251 = test: Cytotoxicity against human U251 cells assessed as cell growth level at 100 uM after 48 hrs by sulforhodamine B assay
MCF7 = test: Cytotoxicity against human MCF7 cells after 48 hrs by sulforhodamine B assay; details: MCF7, 48 h
KM12 = test: Cytotoxicity against human KM12 cells assessed as cell growth level at 100 uM after 48 hrs by sulforhodamine B assay
A498 = test: Cytotoxicity against human A498 cells assessed as cell growth level at 1 uM after 48 hrs by sulforhodamine B assay
MDA-MB-468 = test: Cytotoxicity against human MDA-MB-468 cells after 48 hrs by sulforhodamine B assay; details: MDA-MB-468, 48 h
NCI-H522 [8] = test: Cytotoxicity against human NCI-H522 cells assessed as cell growth level at 1 uM after 48 hrs by sulforhodamine B assay
SF-268 = test: Cytotoxicity against human SF268 cells assessed as cell growth level at 10 uM after 48 hrs by sulforhodamine B assay
MDA-MB-231 = test: Cytotoxicity against human MDA-MB-231/ATCC cells assessed as cell growth level at 1 uM after 48 hrs by sulforhodamine B assay
UACC-257 = test: Cytotoxicity against human UACC257 cells assessed as cell growth level at 100 nM after 48 hrs by sulforhodamine B assay
SN12C [9] = test: Cytotoxicity against human SN12C cells assessed as cell growth level at 1 uM after 48 hrs by sulforhodamine B assay
MDA-MB-435 = test: Cytotoxicity against human MDA-MB-435 cells after 48 hrs by sulforhodamine B assay; details: MDA-MB-435, 48 h
NCI-H226 [10] = test: Cytotoxicity against human NCI-H226 cells assessed as cell growth level at 10 nM after 48 hrs by sulforhodamine B assay
UO-31 = test: Cytotoxicity against human UO31 cells assessed as cell growth level at 1 uM after 48 hrs by sulforhodamine B assay
[11] = Cytotoxicity against human NCI-ADR-RES cells assessed as cell growth level at 10 nM after 48 hrs by sulforhodamine B assay
[12] = read-out: LC50 (the source's name)
[13] = read-out: pLC50 (the source's name) (converted)

Compound `O=c1oc2ccccc2cc1-c1csc(N/N=C/c2c[nH]c3ccccc23)n1` has an Activity (HL-60(TB)) of -23%, an Activity (HCT-116) of 7.48% and an Activity (CAKI-1) of 88%. For the same compound, the GI50 (SN12C [1]; read-out: GI50) was 1.08 µM, the CC50 (SN12C [1]; [12]) was greater than 100 µM and the TGI (SN12C [1]; read-out: TGI) was 3.96 µM. For the same compound, the GI50 (SN12C [1]; read-out: pGI50 (converted)) was 1.07 µM, the CC50 (SN12C [1]; [13]) was greater than 100 µM and the TGI (SN12C [1]; read-out: pTGI (converted)) was 3.98 µM. It also gave a GI50 (T47D; read-out: GI50) of 1.98 µM, a CC50 (T47D; [12]) greater than 100 µM and a TGI (T47D; read-out: TGI) of 5.9 µM. For the same compound, the GI50 (T47D; read-out: pGI50 (converted)) was 2 µM, the CC50 (T47D; [13]) was greater than 100 µM and the TGI (T47D; read-out: pTGI (converted)) was 5.89 µM. The Activity (PC-3) was -20%, the GI50 ([2]; read-out: GI50) was 2.82 µM and the CC50 [2, 12] was greater than 100 µM. The TGI ([2]; read-out: TGI) was 9.23 µM, the GI50 ([2]; read-out: pGI50 (converted)) was 2.82 µM and the CC50 [2, 13] was greater than 100 µM. The TGI ([2]; read-out: pTGI) was less than 9.33 µM, the Activity (HCT-15) was 96% and the Activity (OVCAR-4) was 91%. It also gave an Activity (OVCAR-5) of 102%, an Activity (NCI-H460 [3]) of -94% and a zone of inhibition at 50 µg/mL (Escherichia coli) of 15 mm. It also gave an Activity (RPMI-8226) of 94%, an Activity (HOP-62) of 103% and an Activity (BT-549) of 88%. The Activity (SN12C [4]) was 0.22%, the Activity (HOP-92) was -27% and the Activity (SF-539) was 95%. The Activity (COLO 205) was 115%, the Activity (SK-OV-3) was 94% and the Activity (NCI-H522 [5]) was -77.8%. The GI50 (HCC 2998; read-out: GI50) was 2.82 µM, the CC50 (HCC 2998; [12]) was greater than 100 µM and the TGI (HCC 2998; read-out: TGI) was 6.8 µM. The GI50 (HCC 2998; read-out: pGI50 (converted)) was 2.82 µM, the CC50 (HCC 2998; [13]) was greater than 100 µM and the TGI (HCC 2998; read-out: pTGI (converted)) was 6.76 µM. It also gave an Activity (NCI-H460 [6]) of 79%, an Activity (NCI-H226 [7]) of 42.82% and an Activity (U-251) of -89%. For the same compound, the GI50 (MCF7; read-out: GI50) was 2.4 µM, the CC50 (MCF7; [12]) was greater than 100 µM and the TGI (MCF7; read-out: TGI) was 15.5 µM. It also gave a GI50 (MCF7; read-out: pGI50 (converted)) of 2.4 µM, a CC50 (MCF7; [13]) greater than 100 µM and a TGI (MCF7; read-out: pTGI (converted)) of 15.5 µM. For the same compound, the Activity (KM12) was -52%, the Activity (A498) was 61% and the GI50 (MDA-MB-468; read-out: GI50) was 1.52 µM. For the same compound, the CC50 (MDA-MB-468; [12]) was greater than 100 µM, the TGI (MDA-MB-468; read-out: TGI) was 3.92 µM and the GI50 (MDA-MB-468; read-out: pGI50 (converted)) was 1.51 µM. For the same compound, the CC50 (MDA-MB-468; [13]) was greater than 100 µM, the TGI (MDA-MB-468; read-out: pTGI (converted)) was 3.89 µM and the Activity (NCI-H522 [8]) was 103%. For the same compound, the Activity (SF-268) was 14.73%, the Activity (MDA-MB-231) was 92% and the Activity (UACC-257) was 88%. For the same compound, the Activity (SN12C [9]) was 45%, the GI50 (MDA-MB-435; read-out: GI50) was 2.1 µM and the CC50 (MDA-MB-435; [12]) was 25.2 µM. It also gave a TGI (MDA-MB-435; read-out: TGI) of 5.47 µM, a GI50 (MDA-MB-435; read-out: pGI50 (converted)) of 2.09 µM and a CC50 (MDA-MB-435; [13]) of 25.1 µM. The TGI (MDA-MB-435; read-out: pTGI (converted)) was 5.5 µM, the Activity (NCI-H226 [10]) was 98% and the Activity (UO-31) was 46%. For the same compound, the Activity [11] was 105%.
